Entries after “also recorded” stand apart in the source; their conditions may differ. Read-outs that look alike come from different tables or passages of the source.
How the values were obtained:
OATP1B1 = conditions: cited from earlier work
[1] = Safety and tolerability: treatment-emergent adverse events by intervention; assay type: in vivo, human; conditions: for number of TEAEs (all) / number of subjects with TEAEs / percentage of subjects with TEAEs: per intervention (R1 31, R2 28, T 30, V 29 subjects), T and V co-administered with atorvastatin
Method: Safety was assessed based on symptom reports, physical examinations, vital signs, 12-lead ECGs, and clinical laboratory tests (hematology, clinical chemistry, and urinalysis).

CYP3A4 [2] = test system: CYP3A4; set-up: method as in Nishihara et al., 2019; HK inno.N Corp; conditions: in vitro; ref Nishihara et al., 2019; HK inno.N Corp; cited from earlier work
CYP3A4 [3] = assay: CYP3A4 inhibition in vitro (literature values); assay type: biochemical; conditions: ref Nishihara et al., 2019, HK inno.N Corp
[4] = Serum gastrin, pepsinogen I and II levels pre-dose and 24 h after 7 days of administration; assay type: in vivo, human; conditions: co-administered with atorvastatin for 7 days; compared to the baseline
Text: Error bars represent standard errors. The increase of serum levels in each intervention was compared to the intervention R. P-values were adjusted by Tukey-Kramer method; *p < 0.05; **p < 0.001.

CYP3A4 [5] = assay: Estimated intestinal luminal concentration of vonoprazan compared with the CYP3A4 IC50; conditions: vonoprazan 20 mg orally administered
clinical = conditions: human, in vivo, AUCτ
[6] = human, in vivo
[7] = Steady-state plasma pharmacokinetics of atorvastatin, 2-hydroxyatorvastatin and atorvastatin lactone after atorvastatin 40 mg once daily for 7 days, alone or co-administered with tegoprazan 50 mg or vonoprazan 20 mg; conditions: for AUCτ / Css,max: N = 28; for AUCτ / Css,max / Metabolic ratio (AUCmetabolite/AUCatorvastatin): mean ± SD
[8] = TEAE, intervention arm = label, P-CAB arms co-administered with atorvastatin 40 mg, 7 days
[9] = TEAE, serum gastrin greater than 200 ng/L, intervention arm = label, co-administered with atorvastatin 40 mg, 7 days
[10] = Atorvastatin alone (N = 28 for each intervention), comparison with tegoprazan
[11] = Atorvastatin alone (N = 28 for each intervention), comparison with vonoprazan
[12] = Reference 1: first intervention, atorvastatin 40 mg alone 7 days
[13] = Reference 2: second intervention, atorvastatin 40 mg alone 7 days
[14] = atorvastatin 40 mg co-administered with tegoprazan 50 mg 7 days
[15] = atorvastatin 40 mg co-administered with vonoprazan 20 mg 7 days
[16] = atorvastatin co-administered with vonoprazan compared to atorvastatin alone

## Cc1nc2cc(C(=O)N(C)C)cc(O[C@H]3CCOc4cc(F)cc(F)c43)c2[nH]1 [Tegoprazan, tegoprazan]
OATP1B1; in vitro / non-clinical study, ref HK inno.N Corp
  inhibitory activity on OATP1B1: showed the inhibitory activity on some OATP1B1 substrates; also recorded: showed various inhibitory activities
[1]; [8]
  Blood bilirubin increased: number of events: 2
  Blood bilirubin increased: number of subjects: 2
  Blood bilirubin increased: percentage of subjects: 6.7%
  Neutrophil count decreased: number of events: 1
  Neutrophil count decreased: number of subjects: 1
  Neutrophil count decreased: percentage of subjects: 3.3%
  Ocular discomfort: number of events: 1
  Ocular discomfort: number of subjects: 1
  Ocular discomfort: percentage of subjects: 3.3%
  Pyuria: number of events: 1
  Pyuria: number of subjects: 1
  Pyuria: percentage of subjects: 3.3%
[1]; neutropenia in intervention T, blood creatine phosphokinase increased in intervention R
  subjects who discontinued the study due to AEs: 1
[1]
  number of TEAEs (all): Ten
  number of subjects with TEAEs: 7
  percentage of subjects with TEAEs: 23.3%
CYP3A4 [2]
  IC50: > 30 µM
CYP3A4 [3]
  expected plasma concentration at clinical doses relative to the CYP3A4 IC50 (fold lower): 25 fold
[4]
  increase in serum pepsinogen I: 2.7 times
  increase in serum pepsinogen II: 2.2 times
  increase of serum gastrin: 1.2 times

## CNCc1cc(-c2ccccc2F)n(S(=O)(=O)c2cccnc2)c1 [Vonoprazan, vonoprazan]
OATP1B1; in vitro study, ref Pharmaceuticals and Medical Devices Agency, 2014
  inhibition of OATP1B1: did not inhibit OATP1B1
[1]; TEAE, serum gastrin greater than 200 ng/L, intervention arm = label, P-CAB arms co-administered with atorvastatin 40 mg, 7 days
  Hypergastrinaemia: number of subjects: […]
[1]; [9]
  Hypergastrinaemia: percentage of subjects: 20.7%
[1]; [8]
  Blood bilirubin increased: number of events: 1
  Blood bilirubin increased: number of subjects: 1
  Dyspepsia: number of events: 2
  Dyspepsia: number of subjects: 2
  Headache: number of events: 2
  Headache: number of subjects: 2
  Neutrophil count decreased: number of events: 2
  Neutrophil count decreased: number of subjects: 2
  Pyuria: number of events: 2
  Pyuria: number of subjects: 2
[1]; across the interventions
  occurrence of hypergastrinemia (serum gastrin level greater than 200 ng/L): only occurred when atorvastatin was co-administered with vonoprazan
[1]
  number of TEAEs (all): 17
  percentage of subjects with TEAEs: 51.7%
CYP3A4 [2]
  IC50: […]
CYP3A4 [3]
  expected plasma concentration at clinical doses relative to the CYP3A4 IC50 (fold lower): […]
CYP3A4 [5]; estimated, ref US Food and Drug Administration, 2020b
  intestinal luminal concentration: […]
CYP3A4 [5]
  intestinal luminal concentration relative to the CYP3A4 IC50 (fold higher): […]
[4]
  increase in serum pepsinogen I: […]
  increase in serum pepsinogen II: […]

## CC(C)c1c(C(=O)Nc2ccccc2)c(-c2ccccc2)c(-c2ccc(F)cc2)n1CC[C@@H](O)C[C@@H](O)CC(=O)O [Reference 1, atorvastatin]
[1]; [8]
  Anaemia: number of events: 1
  Anaemia: number of subjects: 1
  Anaemia: percentage of subjects: 3.2%
  Blood bilirubin increased: number of events: 1
  Blood bilirubin increased: number of subjects: 1
  Blood bilirubin increased: percentage of subjects: 3.2%
  Ocular discomfort: number of events: 1
  Ocular discomfort: number of subjects: 1
  Ocular discomfort: percentage of subjects: 3.2%
  Pyuria: number of events: 1
  Pyuria: number of subjects: 1
  Pyuria: percentage of subjects: 3.2%
[1]
  number of TEAEs (all): Seven
  number of subjects with TEAEs: 6
  percentage of subjects with TEAEs: 19.4%

## CC(C)c1c(C(=O)Nc2ccccc2)c(-c2ccccc2)c(-c2ccc(F)cc2)n1CC[C@@H](O)C[C@@H](O)CC(=O)O [Reference 2, atorvastatin]
[1]; [8]
  Anaemia: number of events: 1
  Anaemia: number of subjects: 1
  Anaemia: percentage of subjects: 3.6%
  Blood bilirubin increased: number of events: 2
  Blood bilirubin increased: number of subjects: 2
  Blood bilirubin increased: percentage of subjects: 7.1%
  Pyuria: number of events: 1
  Pyuria: number of subjects: 1
  Pyuria: percentage of subjects: 3.6%
[1]; listed as intervention R2
  number of TEAEs (all): 8
  number of subjects with TEAEs: 7

## CC(C)c1c(C(=O)Nc2ccccc2)c(-c2ccccc2)c(-c2ccc(F)cc2)n1CC[C@@H]1C[C@@H](O)CC(=O)O1 [Atorvastatin lactone, atorvastatin lactone]
clinical; 40 mg
  AUC: 0.0611 ± 0.0302 µg·h/mL
clinical; geometric least squares mean
  AUC: 0.0521 µg·h/mL
[6]
  AUCτ, geometric least squares mean: 0.0673 µg·h/mL
[6]; 40 mg
  AUCτ: 0.05736 ± 0.02851 µg·h/mL

## CC(C)c1c(C(=O)Nc2ccccc2O)c(-c2ccccc2)c(-c2ccc(F)cc2)n1CCC(O)CC(O)CC(=O)O (centres unmarked) [2-hydroxyatorvastatin]
[7]; [10]
  AUCτ, geometric least squares mean: 0.1379 µg·h/mL
  Css,max, geometric least squares mean: 0.0225 µg/mL
[7]; [11]
  AUCτ, geometric least squares mean: 0.1382 µg·h/mL
  Css,max, geometric least squares mean: 0.0227 µg/mL
[7]; [12]
  AUCτ: 0.15204 ± 0.07025 µg·h/mL
  Css,max: 0.02495 ± 0.01177 µg/mL
  Metabolic ratio (AUCmetabolite/AUCatorvastatin): 1.27 ± 0.52
[7]; [13]
  AUCτ: 0.14435 ± 0.05871 µg·h/mL
  Css,max: 0.02572 ± 0.01715 µg/mL
  Metabolic ratio (AUCmetabolite/AUCatorvastatin): 1.32 ± 0.55
[7]; With Tegoprazan (N = 28)
  AUCτ, geometric least squares mean: 0.1448 µg·h/mL
  Css,max, geometric least squares mean: 0.0238 µg/mL
[7]; With Vonoprazan (N = 28)
  AUCτ, geometric least squares mean: 0.1251 µg·h/mL
  Css,max, geometric least squares mean: 0.01591 µg/mL
[7]; [14]
  AUCτ: 0.15646 ± 0.06769 µg·h/mL
  Css,max: 0.02634 ± 0.01264 µg/mL
  Metabolic ratio (AUCmetabolite/AUCatorvastatin): 1.31 ± 0.47
[7]; [15]
  AUCτ: 0.13557 ± 0.06405 µg·h/mL
  Css,max: 0.01819 ± 0.01216 µg/mL
  Metabolic ratio (AUCmetabolite/AUCatorvastatin): 0.90 ± 0.32
[7]; [16]
  Decrease of AUCτ: 9%
  Decrease of Css,max: 30%
[7]; ratio of atorvastatin co-administered with tegoprazan to administered alone
  Css,max, GMR (90% CI): 1.06 (0.95-1.17)

Reference: paper PMC8632694 (Frontiers in Pharmacology, 2021)
